Experimental findings from US20230322747A1, “OXADIAZOLE HDAC6 INHIBITORS AND USES THEREOF” (Eikonizo Therapeutics, Inc., priority 2022, published 2023) are described below.

For assay [1], the target named is Human HDAC6 (Homo sapiens (Human), UniProt Q9UBN7). Put plainly: HDAC6 enzymatic activity assay (Caliper endpoint or fluorogenic format). The class given is biochemical. The following applies: for IC50: in vitro enzymatic; for Selectivity (6 v 8) (fold): ratio of HDAC8 IC50/HDAC6 IC50.
Assay [2] deals with Human HDAC8 (Homo sapiens (Human), UniProt Q9BY41). The assay can be described thus: Caliper endpoint assay for HDAC8 enzymatic activity. The following applies: in vitro enzymatic. Format: biochemical.
Sequence of Human HDAC8 (Q9BY41 whole entry): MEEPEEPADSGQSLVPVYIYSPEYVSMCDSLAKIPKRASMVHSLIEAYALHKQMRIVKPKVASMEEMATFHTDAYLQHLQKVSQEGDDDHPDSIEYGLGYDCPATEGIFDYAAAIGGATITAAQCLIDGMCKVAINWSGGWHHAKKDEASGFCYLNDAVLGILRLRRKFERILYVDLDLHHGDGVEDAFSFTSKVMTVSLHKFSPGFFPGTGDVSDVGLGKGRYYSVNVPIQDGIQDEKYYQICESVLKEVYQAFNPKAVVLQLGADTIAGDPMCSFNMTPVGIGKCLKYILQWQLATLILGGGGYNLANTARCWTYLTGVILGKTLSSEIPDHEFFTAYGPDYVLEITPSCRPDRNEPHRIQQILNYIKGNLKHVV

Some results are limits rather than exact numbers.

Sequence of Human HDAC6 (Q9UBN7 whole entry): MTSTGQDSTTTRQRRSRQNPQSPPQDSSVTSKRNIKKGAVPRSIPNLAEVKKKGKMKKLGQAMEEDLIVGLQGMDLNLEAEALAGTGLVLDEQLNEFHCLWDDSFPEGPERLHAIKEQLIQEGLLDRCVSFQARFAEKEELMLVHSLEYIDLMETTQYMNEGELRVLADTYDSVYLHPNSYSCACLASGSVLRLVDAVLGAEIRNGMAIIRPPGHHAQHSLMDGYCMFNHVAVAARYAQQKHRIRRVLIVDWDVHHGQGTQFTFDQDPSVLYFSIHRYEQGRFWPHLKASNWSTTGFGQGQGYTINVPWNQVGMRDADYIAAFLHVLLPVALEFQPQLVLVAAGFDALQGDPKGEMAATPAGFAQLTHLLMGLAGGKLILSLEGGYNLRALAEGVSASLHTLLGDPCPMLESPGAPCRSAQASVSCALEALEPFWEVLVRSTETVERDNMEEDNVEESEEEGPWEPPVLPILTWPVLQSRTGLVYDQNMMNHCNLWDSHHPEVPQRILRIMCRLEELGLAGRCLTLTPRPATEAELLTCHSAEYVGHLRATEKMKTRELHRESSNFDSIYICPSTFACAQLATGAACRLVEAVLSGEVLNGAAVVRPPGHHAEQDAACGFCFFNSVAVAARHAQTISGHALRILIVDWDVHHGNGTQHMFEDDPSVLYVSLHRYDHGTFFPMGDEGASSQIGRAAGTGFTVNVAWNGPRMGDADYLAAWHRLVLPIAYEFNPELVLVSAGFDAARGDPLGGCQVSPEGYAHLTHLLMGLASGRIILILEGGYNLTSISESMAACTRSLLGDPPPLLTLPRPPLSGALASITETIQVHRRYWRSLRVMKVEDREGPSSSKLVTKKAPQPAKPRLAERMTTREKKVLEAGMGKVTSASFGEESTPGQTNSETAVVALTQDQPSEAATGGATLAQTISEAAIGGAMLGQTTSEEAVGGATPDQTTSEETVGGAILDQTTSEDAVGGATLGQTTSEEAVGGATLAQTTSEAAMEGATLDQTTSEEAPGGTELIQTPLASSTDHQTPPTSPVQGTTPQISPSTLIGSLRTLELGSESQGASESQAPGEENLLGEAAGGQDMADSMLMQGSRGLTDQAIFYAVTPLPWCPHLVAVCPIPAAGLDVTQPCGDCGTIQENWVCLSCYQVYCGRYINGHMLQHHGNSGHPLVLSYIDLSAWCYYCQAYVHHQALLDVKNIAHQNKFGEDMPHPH

In general, IC50 refers to the concentration that inhibits the measured activity by half. With `FC(F)c1nnc(-c2ccc(COc3cccc4cncnc34)nc2)o1` [Compound 56], in assay [1], the IC50 lay in the range of 0.001 to 0.1 µM and the “Selectivity (6 v 8) (fold)” value was “V (V: >1000)”. In assay [2], this molecule displayed an IC50 greater than 100 µM.
The matching figures for `FC(F)c1nnc(-c2ccc(COc3ccncc3)nc2)o1` [Compound 18, 2-(difluoromethyl)-5-(6-((pyridin-4-yloxy)methyl)pyridin-3-yl)-1,3,4-oxadiazole]: 0.001 to 0.1 µM, “V (V: >1000)” and greater than 100 µM.
The matching figures for `Cc1ccnc(OCc2ccc(-c3nnc(C(F)F)o3)cn2)c1` [Compound 71]: 0.001 to 0.1 µM, “V (V: >1000)” and greater than 100 µM.
For `CCn1cnc2cc(OCc3ccc(-c4nnc(C(F)F)o4)cn3)ccc21` [Compound 211], in that order: 0.1 to 1 µM, “IV (IV: >100-1000)” and greater than 100 µM.
Regarding `Cn1ncc2c(OCc3ccc(-c4nnc(C(F)F)o4)cn3)cccc21` [Compound 58], in assay [1], the IC50 was in the range of 0.001 to 0.1 µM and the “Selectivity (6 v 8) (fold)” value was “V (V: >1000)”. In assay [2], this molecule displayed an IC50 greater than 100 µM.
The matching figures for `FC(F)c1nnc(-c2ccc(COc3ccc4nccnc4c3)nc2)o1` [Compound 36]: 0.001 to 0.1 µM, “V (V: >1000)” and greater than 100 µM.
For `CN(C)CCn1cnc2cc(OCc3ccc(-c4nnc(C(F)F)o4)cn3)ccc21` [Compound 210], in assay [1], the IC50 was in the range of 1 to 10 µM and the “Selectivity (6 v 8) (fold)” value is on record as “III (III: >10-100)”. In assay [2], this molecule registered an IC50 greater than 100 µM.
